Data on two molecules can be found in PMC12144444, “Cooperative inhibition in cytochrome P450 between a substrate and an apparent noncompetitive inhibitor” (The Journal of Biological Chemistry, 2025).

Each structure is given as a SMILES string.

The target of this series is CYP105A1 R84A (Streptomyces griseolus, UniProt P18326, R84A). To be noted: diclofenac 4′-hydroxylation, Lineweaver-Burk and Dixon plots. How it is done:
Ethanol concentration in the final reaction solution was 0.8%. […] After each interval, the reaction was stopped by an addition of 50 μl of acetonitrile into each reaction solution. The solution was centrifuged at 10,000 x g for 15 min, and the resultant supernatant was analyzed by ultra performance liquid chromatography (UPLC) under the following conditions: apparatus, H-Class (Waters Co.); column, ACQUITY UPLC BEH C18 (1.7 μm, 2.1 × 100 mm) (Waters Co.); UV detection, 276 nm; column temperature, 40 °C; flow rate, 0.7 ml/min; injection volume, 10 μl; mobile phase, a linear gradient of 25 to 43% acetonitrile in aqueous solution containing 0.1% trifluoroacetic acid (TFA) for 3 min, followed by 43 to 58% acetonitrile in aqueous solution containing 0.1% TFA for 1 min, followed by 58 to 100% acetonitrile in aqueous solution containing 0.1% TFA for 2 min. […] Two separate experiments were performed to obtain the kobs value for 30 μM diclofenac in 5 μM miconazole. Three separate experiments were performed to obtain all other kobs values. Lineweaver-Burk plot and Dixon plot were prepared from the obtained kobs for each reaction.

For the molecule `N#C/C(=C1/SCC(c2ccccc2Cl)S1)n1ccnc1` (centres unmarked) [Lanoconazole], the Type of inhibition result is listed as “noncompetitive inhibition”.
In the case of `Clc1ccc(COC(Cn2ccnc2)c2ccc(Cl)cc2Cl)c(Cl)c1` (centres unmarked) [Miconazole], the Type of inhibition entry is “competitive inhibition”.
